Measurements taken from the supplement of paper PMC10307832.

Tests used:
Experiment in all cases: relative viability (nuclei count vs DMSO), 5 days (fraction); higher = more cells survive
[1] = tested on: PC-14
Outline: (§1)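 Lung cancer cell lines in 1536-well plates were dosed by pin tool the day after seeding, either with one drug alone or with a fixed anchor-drug dose plus five library-drug doses (not always all listed) in √10 steps. After 5 days, cells were fixed and their nuclei stained in one step (final 0.05% Triton X-100, 1% formaldehyde, 1 ug/ml Hoechst), then counted on 4× images. Relative viability is the nuclei count in treated wells divided by that in vehicle wells. Values are medians of duplicate plates.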

[2] = tested on: NCI-H596
Outline: as §1

[3] = tested on: LCLC-97TM1
Outline: as §1

[4] = tested on: NCI-H441
Outline: as §1

[5] = tested on: NCI-H2126
Outline: as §1

[6] = tested on: NCI-H2009
Outline: as §1

[7] = tested on: NCI-H460
Outline: as §1

[8] = tested on: COR-L23
Outline: as §1

[9] = tested on: SW 900
Outline: as §1

[10] = tested on: NCI-H647
Outline: as §1

[11] = tested on: LCLC-103H
Outline: as §1

[12] = tested on: ChaGo-K-1
Outline: as §1

[13] = tested on: NCI-H1734
Outline: as §1

[14] = tested on: LOU-NH91
Outline: as §1

[15] = tested on: HARA
Outline: as §1

[16] = tested on: NCI-H650
Outline: as §1

[17] = tested on: NCI-H1355
Outline: as §1

[18] = tested on: 201T
Outline: as §1

[19] = tested on: NCI-H1792
Outline: as §1

[20] = tested on: HCC-15
Outline: as §1

SMILES: COCC1(CO)C(=O)C2CCN1CC2 (configuration not stated) [PRIMA-1MET] + CCNC(=O)c1noc(-c2cc(C(C)C)c(O)cc2O)c1-c1ccc(CN2CCOCC2)cc1 [Luminespib] (partner 0.01 µM)
- relative viability ([1]; first compound 0.2 µM): 0.137
- relative viability ([1]; first compound 0.6325 µM): 0.176
- relative viability ([1]; first compound 2 µM): 0.169
- relative viability ([1]; first compound 6.325 µM): 0.182
- relative viability ([1]; first compound 20 µM): 0.129
- relative viability ([2]; first compound 0.2 µM): 0.921
- relative viability ([2]; first compound 0.6325 µM): 0.809
- relative viability ([2]; first compound 2 µM): 0.858
- relative viability ([2]; first compound 6.325 µM): 0.936
- relative viability ([2]; first compound 20 µM): 0.109
- relative viability ([3]; first compound 0.2 µM): 0.824
- relative viability ([3]; first compound 0.6325 µM): 0.531
- relative viability ([3]; first compound 2 µM): 0.877
- relative viability ([3]; first compound 6.325 µM): 0.841
- relative viability ([3]; first compound 20 µM): 0.674
- relative viability ([4]; first compound 0.2 µM): 0.437
- relative viability ([4]; first compound 0.6325 µM): 0.334
- relative viability ([4]; first compound 2 µM): 0.276
- relative viability ([4]; first compound 6.325 µM): 0.365
- relative viability ([4]; first compound 20 µM): 0.277
- relative viability ([5]; first compound 0.2 µM): 0.963
- relative viability ([5]; first compound 0.6325 µM): 0.867
- relative viability ([5]; first compound 2 µM): 0.89
- relative viability ([5]; first compound 6.325 µM): 0.929
- relative viability ([5]; first compound 20 µM): 0.885
- relative viability ([6]; first compound 0.2 µM): 0.981
- relative viability ([6]; first compound 0.6325 µM): 0.97
- relative viability ([6]; first compound 2 µM): 1.1
- relative viability ([6]; first compound 6.325 µM): 1.04
- relative viability ([6]; first compound 20 µM): 0.307
- relative viability ([7]; first compound 0.2 µM): 0.0337
- relative viability ([7]; first compound 0.6325 µM): 0.0272
- relative viability ([7]; first compound 2 µM): 0.0258
- relative viability ([7]; first compound 6.325 µM): 0.0312
- relative viability ([7]; first compound 20 µM): 0.0174
- relative viability ([8]; first compound 0.2 µM): 0.691
- relative viability ([8]; first compound 0.6325 µM): 0.528
- relative viability ([8]; first compound 2 µM): 0.711
- relative viability ([8]; first compound 6.325 µM): 0.578
- relative viability ([8]; first compound 20 µM): 0.0159
- relative viability ([9]; first compound 0.2 µM): 0.171
- relative viability ([9]; first compound 0.6325 µM): 0.176
- relative viability ([9]; first compound 2 µM): 0.162
- relative viability ([9]; first compound 6.325 µM): 0.136
- relative viability ([9]; first compound 20 µM): 0.091
- relative viability ([10]; first compound 0.2 µM): 0.181
- relative viability ([10]; first compound 0.6325 µM): 0.224
- relative viability ([10]; first compound 6.325 µM): 0.219
- relative viability ([10]; first compound 20 µM): 0.0932
- relative viability ([11]; first compound 0.2 µM): 1.05
- relative viability ([11]; first compound 0.6325 µM): 0.831
- relative viability ([11]; first compound 2 µM): 0.892
- relative viability ([11]; first compound 6.325 µM): 0.985
- relative viability ([11]; first compound 20 µM): 0.307
- relative viability ([12]; first compound 0.2 µM): 0.694
- relative viability ([12]; first compound 0.6325 µM): 0.531
- relative viability ([12]; first compound 2 µM): 0.57
- relative viability ([12]; first compound 6.325 µM): 0.592
- relative viability ([12]; first compound 20 µM): 0.346
- relative viability ([13]; first compound 0.2 µM): 0.214
- relative viability ([13]; first compound 0.6325 µM): 0.18
- relative viability ([13]; first compound 2 µM): 0.192
- relative viability ([13]; first compound 6.325 µM): 0.172
- relative viability ([13]; first compound 20 µM): 0.0435
- relative viability ([14]; first compound 0.2 µM): 0.347
- relative viability ([14]; first compound 0.6325 µM): 0.353
- relative viability ([14]; first compound 2 µM): 0.365
- relative viability ([14]; first compound 6.325 µM): 0.42
- relative viability ([14]; first compound 20 µM): 0.265
- relative viability ([15]; first compound 0.2 µM): 0.619
- relative viability ([15]; first compound 0.6325 µM): 0.0534
- relative viability ([15]; first compound 6.325 µM): 0.675
- relative viability ([15]; first compound 20 µM): 0.654
- relative viability ([16]; first compound 0.2 µM): 1.19
- relative viability ([16]; first compound 2 µM): 0.666
- relative viability ([16]; first compound 6.325 µM): 0.746
- relative viability ([16]; first compound 20 µM): 0.373
- relative viability ([17]; first compound 0.2 µM): 0.859
- relative viability ([17]; first compound 0.6325 µM): 0.556
- relative viability ([17]; first compound 2 µM): 0.695
- relative viability ([17]; first compound 6.325 µM): 0.734
- relative viability ([17]; first compound 20 µM): 0.673
- relative viability ([18]; first compound 0.2 µM): 1.17
- relative viability ([18]; first compound 0.6325 µM): 0.937
- relative viability ([18]; first compound 2 µM): 0.926
- relative viability ([18]; first compound 6.325 µM): 1.05
- relative viability ([18]; first compound 20 µM): 1.06
- relative viability ([19]; first compound 0.2 µM): 0.533
- relative viability ([19]; first compound 0.6325 µM): 0.491
- relative viability ([19]; first compound 2 µM): 0.394
- relative viability ([19]; first compound 6.325 µM): 0.466
- relative viability ([19]; first compound 20 µM): 0.45
- relative viability ([20]; first compound 0.2 µM): 0.264
- relative viability ([20]; first compound 0.6325 µM): 0.232
- relative viability ([20]; first compound 2 µM): 0.393
- relative viability ([20]; first compound 6.325 µM): 0.408
- relative viability ([20]; first compound 20 µM): 0.197
